Results as given in BigSolDB 2.1.
Where a SMILES comes first, the peptide text is derived from it. [ ]: non-standard residue; d: D form. pGlu = O=C1CC[C@@H](C(=O)O)N1; Thz = O=C(O)[C@@H]1CSCN1

O=C1CC[C@@H](C(=O)N2CSC[C@H]2C(=O)O)N1 ([pGlu]-[Thz]-OH)
solubility (mole fraction)
Details	278.15 K	283.15 K	288.15 K	293.15 K	298.15 K	303.15 K	308.15 K	313.15 K	318.15 K	323.15 K
in DMF	0.00535	0.00604	0.00734	0.00953	0.0123	0.0151	0.0182	0.0214	0.0253	0.0291
in acetone	3.1e-05	5e-05	8.5e-05	0.000121	0.000176	0.000249	0.000354	0.000522	0.000693	0.000925
in acetonitrile	0.000297	0.000336	0.000426	0.00052	0.000691	0.000855	0.00107	0.00132	0.00159	0.00195
in benzyl alcohol	0.00226	0.00262	0.00307	0.00374	0.00452	0.00553	0.00661	0.00806	0.0101	0.0128
in ethanol	8.3e-05	0.000128	0.000198	0.000303	0.00045	0.000679	0.000986	0.00144	0.00208	0.00292
in isopropanol	9.1e-05	0.000138	0.000209	0.000307	0.000454	0.000663	0.000945	0.00136	0.0019	0.00265
in methanol	0.00121	0.00137	0.00157	0.00184	0.00216	0.00257	0.00305	0.00365	0.00437	0.00528
in n-butanol	0.000227	0.000282	0.000354	0.000439	0.000566	0.00072	0.000908	0.0012	0.00151	0.00197
in water	0.00163	0.00181	0.00205	0.00234	0.0027	0.00313	0.00368	0.00434	0.00509	0.00604
